Measurements: patent publication US20060030537A1, “Ceramide kinase and uses thereof” (priority 2004, published 2006)

Test system: L929 fibroblasts
Assay: AA release in L929 fibroblasts
Format: cell-based
Method: FIGS. 3A-3B. FIG. 3A. The effects of ceramide-1-phosphate on TXB2 synthesis. A549 cells (1×10^5) were treated with D-e-C16 ceramide-1-phosphate (1 μM) solubilized in 2% dodecane/98% ethanol (final concentration in treatments was 0.002% dodecane/0.098% ethanol (EtOH)) for the indicated times. The results are presented as % control of TXB2 controlled for equivalent number of cells by MTT assay. Data are representative of 3 separate determinations on 2 separate occasions. FIG. 3B. The effects of ceramide-1-phosphate on AA release and PGE2 synthesis in L929 fibroblasts. L929 cells (5×10^4) were labeled overnight with 5 μCi/mL [^3H]-arachidonic acid (5 nM). Cells were washed and placed in DMEM supplemented with 2% fetal bovine serum for two hours. […]
Quantification of arachidonic acid (AA) release: A549 cells (5×10^4) were labeled overnight with 5 μCi/mL [^3H]-AA (5 nM) (NEN). […] Following treatment, media was transferred to 1.5 mL polypropylene tubes, centrifuged at 10,000×g, and ^3H-AA cpm determined by scintillation counting. Results were controlled for equivalent number of cells quantified by MTT assay as described (Chalfant, C. E., Rathman, K., Pinkerman, R. L., Wood, R. E., Obeid, L. M., Ogretmen, B., and Hannun, Y. A. (2002) J. Biol. Chem. 277, 12587-12595) and by verification of total AA labeling by scintillation counting. […]

## ceramide kinase RNAi: 21-nucleotide duplex, human ceramide kinase RNAi starting 142 nucleotides from start codon (SEQ ID NO: 3 and 4) (chain 1 UGCCUGCUCUGUGCCUGUATT; chain 2 UACAGGCACAGAGCAGGCATT; chemistry not given here)
  inhibition of AA release in response to IL-1β: over 60%
